Measured values as given in US9561186B2, “Method for improving the bioavailability of low aqueous solubility drugs” (PHARMATHEN S.A., priority 2012, dated 2017).

Assay: Solubility of Tadalafil in 2-pyrrolidone
Format: physicochemical
Conditions: compared with ethanol as solvent
Text: Pyrroplus Manufacturing Process” as described above, overcomes several problems associated with the low solubility of Tadalafil. […] Conversely, using ethanol as solvent requires either increased amount of solvent or small quantity of Tadalafil, which both incommode the preparation of a pharmaceutical composition.

CN1CC(=O)N2[C@H](c3ccc4c(c3)OCO4)c3[nH]c4ccccc4c3C[C@@H]2C1=O [Tadalafil]
solubility when dissolved in 2-pyrrolidone: its solubility increases and reaches high values
